Results as given in patent publication US20100255580A1, “Differentiation of Human Embryonic Stem Cells” (LIFESCCAN, INC., priority 2007, published 2010).

System: H9 embryonic stem cells
Format: cell-based, human
Method: Controls for each group included cells plated on […]-coated dishes and cultured in MEF-conditioned medium or cells plated on MEFs and cultured in ES medium. All groups contained three biological replicates and each biological replicate was repeated on two separate gene chips.
Sample preparation, hybridization, and image analysis were performed according to the Affymetrix Human Genome U133 Plus 2.0 Array. Following normalization and a log transformation, data analysis was performed using OmniViz® software (MA) and […] (VizXLabs, WA). Significant differences in gene expression between the samples were evaluated using analysis of variance and an F-test with adjusted P-value (Benjamini and
Hochberg correction) of ≦b 0.05. Only genes with a present call in at least one group were included in the analysis.

[1] = DE treatment in low serum, on MEFS

With “Activin A: a member of the TGFβ superfamily; R&D Systems; Group 2 = Activin A (100 ng/ml)” the “mean normalized intensity (log format), gene: Homo sapiens methyl-CpG binding protein MBD2 (MBD2) mRNA, complete cds.” value [1] was −1.702, the “mean normalized intensity (log format), gene: Homo sapiens tachykinin, precursor 1 (TAC1), transcript variant beta, mRNA.” value [1] was 1.483 and the “mean normalized intensity (log format), gene: Homo sapiens testis expressed sequence 14 (TEX14), mRNA.” value [1] was −1.3824. For the same substance, the “mean normalized intensity (log format), gene: Homo sapiens, Similar to LIM homeobox protein 8, clone IMAGE: 4839343, mRNA.” value [1] was −1.11, the “mean normalized intensity (log format), gene: Homo sapiens, Similar to cadherin 6, type 2, K-cadherin (fetal kidney), clone MGC: 1470, mRNA, complete cds.” value [1] was 2.134 and the “mean normalized intensity (log format), gene: Homo sapiens, Similar to hypothetical protein FLJ10058, clone MGC: 34305 IMAGE: 5167647, mRNA, complete cds.” value [1] was 0.2156. For the same substance, the “mean normalized intensity (log format), gene: Homo sapiens, Similar to hypothetical protein FLJ32001, clone MGC: 39559 IMAGE: 4828136, mRNA, complete cds.” value [1] was 1.269, the “mean normalized intensity (log format), gene: Homo sapiens, clone IMAGE: 4067166, mRNA” value [1] was 0.277 and the “mean normalized intensity (log format), gene: Homo sapiens, clone IMAGE: 4828836, mRNA.” value [1] was −1.484. The “mean normalized intensity (log format), gene: Homo sapiens, serine (or cysteine) proteinase inhibitor, clade B (ovalbumin), member 3, clone MGC: 12244, mRNA, complete cds.” value [1] was −1.566, the “mean normalized intensity (log format), gene: Human mRNA upregulated during camptothecin-induced apoptosis of U937 cells.” value [1] was −0.1892 and the “mean normalized intensity (log format), gene: Human platelet-derived growth factor alpha-receptor (PDGFRA) mRNA, exons 13-16” value [1] was 2.905. For the same substance, the “mean normalized intensity (log format), gene: KIAA1151 protein” value [1] was 1.009, the “mean normalized intensity (log format), gene: caldesmon 1” value [1] was 5.634 and the “mean normalized intensity (log format), gene: nuclear receptor subfamily 1, group I, member 3” value [1] was −0.1968. The “mean normalized intensity (log format), gene: paternally expressed 3 (r2033)” value [1] was −0.0118, the “mean normalized intensity (log format), gene: paternally expressed 3 (r2093)” value [1] was −3.492 and the “log intensity, AD036 mRNA” value (low serum, on MATRIGEL) was −0.5033. For the same substance, the “log intensity, ADP-ribosylation factor 4-like (ARF4L)” value (low serum, on MATRIGEL) was 1.635, the “log intensity, BACE mRNA for beta-site APP cleaving enzyme I-476” value (low serum, on MATRIGEL) was 0.4855 and the “log intensity, BTB (POZ) domain containing 2 (BTBD2)” value (low serum, on MATRIGEL) was 1.101. The “log intensity, CXCR4 gene encoding receptor CXCR4” value (low serum, on MATRIGEL) was 3.111, the “log intensity, Cluster Incl. AB002344: Human mRNA for KIAA0346 gene (r901)” value (low serum, on MATRIGEL) was 2.157 and the “log intensity, Cluster Incl. AB002344: Human mRNA for KIAA0346 gene (r941)” value (low serum, on MATRIGEL) was 1.896. For the same substance, the “log intensity, Cluster Incl. L37033: Human FK-506 binding protein homologue (FKBP38)” value (low serum, on MATRIGEL) was 0.6156, the “log intensity, Cluster Incl. N80935: zb07g06.s1 Homo sapiens cDNA” value (low serum, on MATRIGEL) was 2.124 and the “log intensity, ESTs (r403)” value (low serum, on MATRIGEL) was 0.7843. For the same substance, the “log intensity, ESTs (r404)” value (low serum, on MATRIGEL) was −1.263, the “log intensity, ESTs (r405)” value (low serum, on MATRIGEL) was −1.717 and the “log intensity, ESTs (r442)” value (low serum, on MATRIGEL) was 2.774. The “log intensity, ESTs (r453)” value (low serum, on MATRIGEL) was −1.637, the “log intensity, ESTs (r473)” value (low serum, on MATRIGEL) was −0.04834 and the “log intensity, ESTs (r491)” value (low serum, on MATRIGEL) was −1.344. The “log intensity, ESTs (r522)” value (low serum, on MATRIGEL) was −0.8015, the “log intensity, ESTs (r523)” value (low serum, on MATRIGEL) was −2.576 and the “log intensity, ESTs (r524)” value (low serum, on MATRIGEL) was 0.4996. The “log intensity, ESTs (r556)” value (low serum, on MATRIGEL) was −0.1206, the “log intensity, ESTs (r567)” value (low serum, on MATRIGEL) was −2.015 and the “log intensity, ESTs (r627)” value (low serum, on MATRIGEL) was 2.542. For the same substance, the “log intensity, ESTs (r741)” value (low serum, on MATRIGEL) was −0.004009, the “log intensity, ESTs (r745)” value (low serum, on MATRIGEL) was 1.386 and the “log intensity, ESTs (r766)” value (low serum, on MATRIGEL) was 1.047. For the same substance, the “log intensity, ESTs (r767)” value (low serum, on MATRIGEL) was −1.485, the “log intensity, ESTs (r891)” value (low serum, on MATRIGEL) was −2.079 and the “log intensity, ESTs (r916)” value (low serum, on MATRIGEL) was −0.1464. For the same substance, the “log intensity, ESTs (r938)” value (low serum, on MATRIGEL) was −1.246, the “log intensity, ESTs (r980)” value (low serum, on MATRIGEL) was −0.1842 and the “log intensity, ESTs (r1021)” value (low serum, on MATRIGEL) was −0.4037. For the same substance, the “log intensity, ESTs (r1022)” value (low serum, on MATRIGEL) was 2.144, the “log intensity, ESTs (r1059)” value (low serum, on MATRIGEL) was 0.7835 and the “log intensity, ESTs (r1060)” value (low serum, on MATRIGEL) was 1.175. For the same substance, the “log intensity, ESTs (r1110)” value (low serum, on MATRIGEL) was 0.533, the “log intensity, ESTs (r1115)” value (low serum, on MATRIGEL) was −1.164 and the “log intensity, ESTs, Highly similar to AF229172 1 class III myosin” value (low serum, on MATRIGEL) was −0.4755. For the same substance, the “log intensity, ESTs, Moderately similar to ALU4_HUMAN ALU SUBFAMILY SB2” value (low serum, on MATRIGEL) was −1.104, the “log intensity, ESTs, Moderately similar to JC4969 pig-c protein” value (low serum, on MATRIGEL) was −2.397 and the “log intensity, ESTs, Moderately similar to NFY-C” value (low serum, on MATRIGEL) was −0.7494. For the same substance, the “log intensity, ESTs, Weakly similar to A46302 PTB-associated splicing factor, long form” value (low serum, on MATRIGEL) was 0.8941, the “log intensity, ESTs, Weakly similar to ALU8_HUMAN ALU SUBFAMILY SX” value (low serum, on MATRIGEL) was 2.766 and the “log intensity, ESTs, Weakly similar to ALUC_HUMAN” value (low serum, on MATRIGEL) was 1.08. The “log intensity, ESTs, Weakly similar to ALUF_HUMAN” value (low serum, on MATRIGEL) was −1.032, the “log intensity, ESTs, Weakly similar to KIAA1330 protein” value (low serum, on MATRIGEL) was −0.9252 and the “log intensity, ESTs, Weakly similar to KIAA1399 protein” value (low serum, on MATRIGEL) was −0.8312. The “log intensity, ESTs, Weakly similar to T32252 hypothetical protein T15B7.2” value (low serum, on MATRIGEL) was 2.21, the “log intensity, ESTs, Weakly similar to Z132_HUMAN ZINC FINGER PROTEIN 13” value (low serum, on MATRIGEL) was 1.049 and the “log intensity, F37Esophageal cancer-related gene-coding leucine-zipper motif (FEZ1)” value (low serum, on MATRIGEL) was −0.1288. The “log intensity, FLICE-like inhibitory protein short form” value (low serum, on MATRIGEL) was 0.1358, the “log intensity, GS1999full mRNA” value (low serum, on MATRIGEL) was 0.137 and the “log intensity, H1 histone family, member X (H1FX)” value (low serum, on MATRIGEL) was 3.217.
